Columns and labels:
[1] = parameters: species or system mice; conditions: mouse, in vivo, po, 5 mg/kg
Procedure: Male nude mice (CAnN.Cg-Foxn1-nu, 4 weeks old, 20 g to 22 g) were purchased from OrientBio (Seongnam, Republic of Korea). The mice were placed in a chamber with conditions maintained at 23° C. and 50% humidity with a period of 12 hours of light and 12 hours of darkness. All animal experiments were conducted according to the National Institutes of Health's Laboratory Animal Care and Use Guidelines (NIH Publications No. 8023, revised 1996) and the Kyung Hee University's Animal Care and Use Guidelines ([…]-441, approval data: Sep. 28, 2021). […] The control group was administered with only 0.9% of general saline during this period. Body weights and tumor volumes of the mice were measured daily in all mice during the study period. All mice were euthanized after the end of the experiments. Blood, liver, spleen, kidney, and tumor tissues were extracted and weighed. In order to obtain the protein of tumor tissue, a portion of the tissue was processed with RIPA buffer containing a protease inhibitor cocktail. Then, the expression degree of a specific protein (determined by Western blot) was determined. […] Fuji Dri-Chem analyzer (3500, Fuji Photo Film Co., Osaka, Japan) was used to measure alanine aminotransferase (ALT), aspartate aminotransferase (AST), total bilirumin (T-Bili), total protein (TP), albumin (Alb), albumin/globulin (A/G) ratio, total cholesterol (T-Chol), total triglyceride (TG), glucose (GLU), and blood urea nitrogen (BUN) values.

[2] = tested on: AGS xenograft tumor tissue; assay: IHC staining of tumor tissue; type: in vivo; conditions: tumor tissue of administered mice
Procedure: The tumor tissue was fixed with 10% formalin and embedded with paraffin. Immunohistochemical (IHC) staining was performed using a mouse and rabbit-specific HRP/DAB (ABC) detection IHC kit (Abcam, Cambridge, MA, USA). The tissue was observed through an optical microscope, and the presence of a specific protein in the tumor tissue was determined to be the presence of a brown yellow color. The results were evaluated using ImageJ software.

AGS cells = conditions: for dose at which significant toxicity to AGS cells was not exhibited: MTT; for IC50: read-out: IC50 on AGS cells, 24 hours, MTT assay; for dose at which significant toxicity to AGS cells was not exhibited / IC50: AGS cells
Procedure: AGS cells were grown in RPMI medium containing 10% FBS and 1% PS. HEK293 and RAW264.7 cells were grown in DMEM medium containing 10% FBS and 1% PS under conditions of 37° C., 5% CO2 and 95% air.
In order to evaluate toxicity to each cell, the sample was incubated in each cell (1×10^5 cells/well) cultured in the above manner for 24 hours, and then cytotoxicity to each cell was examined by using the MTT assay.

[3] = tested on: AGS xenograft tumor tissue; assay: Western blot of tumor tissue of xenograft mice; type: in vivo; conditions: tumor tissue, oral 5 mg/kg, compared to control group
Procedure: For whole protein extraction, AGS cells were processed with samples at various concentrations for 24 hours. The cells were dissolved using Pierce™ RIPA buffer (Thermo Fisher Scientific, Rockford, IL, USA) together with protease inhibitor cocktail (GenDEPOT, TX, USA). The cell-dissolved solution formed in the above manner was centrifuged at 12,000 rpm for 20 minutes. The protein was loaded into a 10% SDS-PAGE gel using a protein gel electrophoresis chamber system and transferred to a PVDF membrane (Thermo Fisher Scientific, Rockford, IL, USA). A PBST solution containing 5% skim milk was used to block the membrane at 25° C. for 1 hour. Then, the membrane was incubated overnight at 4° C. with primary antibodies. Finally, the membrane was incubated with the secondary antibodies at 25° C. for 1 hour, and a protein band was detected using West-Q Pico ECL Solution (GenDEPOT, TX, USA). The results were quantified using ImageJ software.
Each mouse was orally administered with 8-paradol and 5-FU once a day for a total of 16 days. The control group was administered with only 0.9% of general saline during this period. Body weights and tumor volumes of the mice were measured daily in all mice during the study period. All mice were euthanized after the end of the experiments. Blood, liver, spleen, kidney, and tumor tissues were extracted and weighed. In order to obtain the protein of tumor tissue, a portion of the tissue was processed with RIPA buffer containing a protease inhibitor cocktail. Then, the expression degree of a specific protein (determined by Western blot) was determined.

With `O=c1[nH]cc(F)c(=O)[nH]1` [5-FU, 5-fluorouracil] the “A/G (albumin/globulin)” value [1] was 0.52 ratio, the “ALT (alanine aminotransferase)” value [1] was 101.6 U/L and the “AST (aspartate aminotransferase)” value [1] was 204.9 U/L. For the same compound, the “Alb (albumin)” value [1] was 1.7 g/dL, the “BUN (blood urea nitrogen)” value [1] was 26.7 mg/dL and the “Crea (creatinine)” value [1] was 0.34 mg/dL. For the same compound, the “GLU (glucose)” value [1] was 56 mg/dL, the “T-Bili (total bilirubin)” value [1] was 0.08 mg/dL and the “T-Chol (total cholesterol)” value [1] was 124 mg/dL. The “TG (triglyceride)” value [1] was 34 mg/dL, the “TP (total protein)” value [1] was 5.1 g/dL and the “density of LC3 and caspase-3 in tumor tissue” value [2] was “increased”. The “cytotoxicity to AGS cells” value (AGS cells) was “strong toxicity” and the “protein expressions of LC3, Pink1, Parkin, Bax, Cytochrome-c, cleaved-caspase-3/caspase-3, Cleaved-caspase-9/caspase-9, p62 and Bcl-2” value [3] was “lower”.
In the case of `N#CC(C#N)=NNc1cccc(Cl)c1` [CCCP, carbonyl cyanide m-chlorophenylhydrazone, reference compound], the “dose at which significant toxicity to AGS cells was not exhibited” value (AGS cells) is reported as “less than 15 μM”.
Work on `CCCCCCCC(=O)CCc1ccc(O)c(OC)c1` [Purified Compound 1, 6-paradol] yielded an IC50 (AGS cells) of 25.7 ± 1.87 µM.
`CCCCC[C@H](O)CC(=O)CCc1ccc(O)c(OC)c1` [Purified Compound 2, 6-gingerol] showed an IC50 (AGS cells) of 178 ± 2.51 µM.
Compound `CCCCCCC[C@H](O)CC(=O)CCc1ccc(O)c(OC)c1` [Purified Compound 4, 8-gingerol] has an IC50 (AGS cells) of 33.2 ± 1.21 µM.
Work on `CCCCCCCCC[C@H](O)CC(=O)CCc1ccc(O)c(OC)c1` [Purified Compound 5, 10-gingerol] yielded an IC50 (AGS cells) of 16.1 ± 2.32 µM.
`CCCCC/C=C/C(=O)CCc1ccc(O)c(OC)c1` [Purified Compound 6, 6-shogaol] gave an IC50 (AGS cells) of 32.9 ± 2.26 µM.
`CCCCCCC/C=C/C(=O)CCc1ccc(O)c(OC)c1` [Purified Compound 7, 8-shogaol] gave an IC50 (AGS cells) of 45.6 ± 3.6 µM.
With `CCCCCCCCC/C=C/C(=O)CCc1ccc(O)c(OC)c1` [Purified Compound 8, 10-shogaol] the IC50 (AGS cells) was 64.5 ± 1.98 µM.
In the case of `CO[C@H]1C[C@@H]2CC[C@@H](C)[C@@](O)(O2)C(=O)C(=O)N2CCCC[C@H]2C(=O)O[C@H]([C@H](C)C[C@@H]2CC[C@@H](O)[C@H](OC)C2)CC(=O)[C@H](C)/C=C(\C)[C@@H](O)[C@@H](OC)C(=O)[C@H](C)C[C@H](C)/C=C/C=C/C=C/1C` [rapamycin, reference compound], the “dose at which significant toxicity to AGS cells was not exhibited” value (AGS cells) is reported as “less than 6 μM”.

— patent US20250144047A1, “PHARMACEUTICAL COMPOSITION FOR PREVENTING, AMELIORATING, OR TREATING CANCER CONTAINING 8-PARADOL” (KDBIO CORP., priority 2022, published 2025)
